From patent US20260176284A1, “Compounds with Anti-KRAS Mutated Tumor Activity” (Trasveda Ltd., priority 2022, published 2026)

What was measured:
[1] = test system: KRAS G12D mutated AGS human gastric adenocarcinoma cells; test: Proliferation inhibition of KRAS G12D mutant AGS cells (CellTiter-Glo, 3 days; IC50 and single-point inhibition rate at 1 μM); type: cell-based; conditions: 72 h, 3 days incubation, max concentration 10 μM
Experimental: This experiment assessed and validated the proliferation inhibitory activity of some compounds of the present invention against KRAS G12D mutant AGS cells.
Incubate at 37° C., 5% CO2, 95% humidity.
The following materials, instruments, and reagents were used in this experiment: Fetal Bovine Serum FBS (GIBCO, Cat #10099-141); CellTiter-Glo® Luminescent Cell Viability Assay (Promega, Cat #G7572); 96-well clear flat-bottom black-wall plate (Corning®, Cat #3603); SpectraMax multimode microplate reader (MD, 2104-0010A); CO2 Incubator (Thermo Scientific, Model 3100 Series); Biosafety cabinet (Thermo Scientific, Model 1300 Series A2); Inverted microscope (Olympus, CKX41SF); AGS cell line was purchased from Nanjing Kebai Biotechnology Co., Ltd., under the lot number CBP60476.
Cell culture and inoculation: The cells in the logarithmic growth phase were harvested, and cell counting was performed using a platelet counter. The cell viability was detected by Trypan Blue exclusion method to ensure that the cell viability was above 90%. The cell concentration was adjusted. Then, 90 μL of the cell suspension was added to each well of a 96-well plate respectively, and the cells in the 96-well plate were cultured at 37° C. and 5% CO2.
Drug dilution and addition: a) For the preparation of drugs for single-point inhibition rate determination: A 10-fold concentrated drug solution was prepared. 10 μL of the drug solution was added to each well of the 96-well plate inoculated with cells to make the working concentration 1 μM, and three replicate wells were set for each drug concentration; b) For the preparation of drugs for IC50 determination: A 10-fold concentrated drug solution was prepared. 10 μL of the drug solution was added to each well of the 96-well plate inoculated with cells to make the maximum working concentration 10 μM, with a 3.16× dilution and a total of 9 concentrations. Three replicate wells were set for each drug concentration. The cells in the 96-well plate with the added drugs were incubated at 37° C. and 5% CO2 for another 3 days, and then the CTG assay was performed.
(§1) The CTG reagent was thawed, and the cell plate was equilibrated to room temperature for 30 minutes. An equal volume of CTG solution was added to each well, and the plate was shaken on an orbital shaker for 5 minutes to lyse the cells. The cell plate was placed at room temperature for 20 minutes to stabilize the luminescence signal, and then the luminescence value was read.
The data were analyzed using GraphPad Prism 7.0 software. The data were fitted by nonlinear S-curve regression to obtain the dose-response curve, and the IC50 value was calculated accordingly.

[2] = test system: KRAS G12D mutated AGS (3D) cells; test: Proliferation inhibition of KRAS G12D mutated AGS (3D) cells (methylcellulose 3D culture, CTG, 120 h); type: cell-based; conditions: Homo sapiens
Experimental: The inhibitory effect of representative compounds on the 3D proliferation of the AGS cell line was evaluated by non-adherent, spherical growth in a methylcellulose 3D culture medium.
The following materials, instruments and reagents were used in this experiment: Culture medium RPMI1640 (HyClone, Cat #SH30809.01); Fetal bovine serum FBS (GBICO, Cat #10099-141); CellTiter-Glo® Luminescent Cell Viability Assay (Novozymes Nanjing, Cat #DD1101-04); 96-well Polystyrene microplates (black-wall) (Greiner Bio one, Cat. #655096); Methylcellulose (SIGMA, CAS: 9004-67-5); AGS cells (KC-0405, Kangyuan Bochuang Biotechnology (Beijing) Co., Ltd.); Multifunctional microplate reader (BMG LABTECH, CLARIOstar® Plus); CO2 incubator (Thermo Scientific, Model 3100 Series).
Cell Culture and Inoculation: The cells in the logarithmic growth phase were harvested and cell counting was performed using a platelet counter. The cell viability was detected by Trypan Blue exclusion method to ensure that the cell viability was above 90%. The cell concentration was adjusted. After there were no visible air bubbles in the cell suspension, 180 μL of the cell suspension was added to each well of a 96-well plate respectively, so that the final concentration of methylcellulose was 0.65% and the number of cells was 2400 per well. The cells in the 96-well plate were cultured overnight at 37° C., 5% CO2 and 95% humidity.
The drug dilution and administration were carried out as follows: A 10-fold concentrated drug solution was prepared with the culture medium. 20 μL of the drug solution was added to each well of the 96-well plate inoculated with cells to make the maximum working concentration 10 μM, with a 3.16× dilution, a total of 9 concentrations. Three replicate wells were set for each drug concentration and the DMSO content was 0.1%. The cells in the 96-well plate with the added drugs were continuously cultured at 37° C., 5% CO2 and 95% humidity for 120 h, and then a CTG analysis was performed.
as §1, with “thawed” for “thawed,”
The data were analyzed using GraphPad Prism 7.0 software. The data were fitted by nonlinear S-curve regression to obtain the dose-response curve, and the IC50 value was calculated accordingly. Cell survival rate (%)=(LumTest drug−LumMedium control)/(LumCell control−LumMedium control)×100%.

[3] = test system: KRAS G12D mutated AGS human gastric adenocarcinoma cells; test: Proliferation inhibition of KRAS G12D mutant AGS cells, another experiment with similar protocol (includes MRTX1133); type: cell-based
Experimental: In another experiment, using a protocol similar to the one described above, the inhibitory activity of some representative compounds of the present invention against KRAS G12D mutated AGS human gastric adenocarcinoma cells was determined.
The synthesis of compound MRTX1133 was performed according to the method described in J. Med. Chem. 2022, 65, 4, 3123-3133.

GP2D cells = test: 3D proliferation inhibition of KRAS G12D mutated tumor cells, GP2D; type: cell-based, human; conditions: 3D methylcellulose culture, CTG, 120 hours
From the text: (§2) This experiment evaluated and verified the proliferation inhibitory activity of the representative compounds of the present invention against the following five strains of KRAS-related tumor cells.
(§3) The following materials, reagents and instruments were used in this experiment: Five strains of cells were all from Nanjing Kebai Biotechnology Co., Ltd. (GP2D, CBP60010; HPAC, CBP60539; AsPC-1, CBP60546; KP-4, CBP60541; Panc 04.03, CBP60683); DMEM (Gibco, 11965092); RPMI-1640 (Gibco, SH30809.01); HPAC complete medium (Cobioer, CBP60539M); Fetal bovine serum FBS (Gibco, 10091-148); Insulin (Gibco, 41400045); Methylcellulose (methylcellulose, Sigma, 9004-67-5); Phosphate-buffered saline DPBS (Comning, 21-031-CVC); CellTiter-Glo® Luminescent Cell Viability Assay (Promega, Cat #G7573); 96-well clear flat-bottom black-wall plate (Corning, 3603); EnVision multilabel plate reader (PerkinElmer #2105); CO2 incubator (Thermo Scientific, Model 3 71 Series).
(§4) A sterilized 1% methylcellulose 3D culture medium was prepared in advance. The cells in the logarithmic growth phase were harvested, and a Countstar automatic cell counter based on the principle of the classic trypan blue staining method was used for cell counting and detecting cell viability to ensure that the cell viability was above 90%. The cell concentrations of GP2D, HPAC, AsPC-1, KP-f4, and Panc 04.03 were adjusted so that the final concentration of methylcellulose was 0.65%, and the mixture was allowed to stand after being well-mixed. After there were no visible air bubbles in the cell suspension, 80 μL of the cell suspension was added to each well of a 96-well plate, with a total of 1000-2000 cells. The cells in the 96-well plate were cultured overnight at 37° C., 5% CO2, and 95% humidity.
(§5) Drug Preparation for IC50 Determination: First, a 10 mM DMSO stock solution of each compound was prepared. For the first dilution, using DMSO as the solvent, each compound was first diluted to 5 mM and then serially diluted 3-fold to obtain 9 concentrations, preparing DMSO solutions of each compound at different concentrations. For the second dilution, a 5-fold diluted solution of each compound was prepared by a 1:100 dilution, using the complete medium as the solvent. […]
(§6) The cells in the 96-well plate with the added drugs were further cultured at 37° C. and 5% CO2 for 120 hours, and then a CTG analysis was performed. […] The cell plate was placed at room temperature for 20 minutes to stabilize the luminescence signal. The luminescence value was read, and the data were collected.
(§7) The data were analyzed using GraphPad Prism 9.0 software. Non-linear S-curve regression was used to fit the data to obtain the dose-response curve, and the IC50 value (nM) was calculated accordingly. […]

HPAC cells = test: 3D proliferation inhibition of KRAS G12D mutated tumor cells, HPAC; type: cell-based, human; conditions: 3D methylcellulose culture, CTG, 120 hours
From the text: as §2, §3, §4, §5, §6, §7

KP-4 cells = test: 3D proliferation inhibition of KRAS G12D mutated tumor cells, KP-4; type: cell-based; conditions: CTG, 120 hours
From the text: as §2, §3, §4, §5, §6, §7

Panc 04.03 cells = test: 3D proliferation inhibition of KRAS G12D mutated tumor cells, Panc 04.03; type: cell-based; conditions: CTG, 120 hours
From the text: as §2, §3, §4, §5, §6, §7

AsPC-1 cells = test: 3D proliferation inhibition of KRAS G12D mutated tumor cells, AsPC-1; type: cell-based; conditions: Homo sapiens, ASPC1, 3D methylcellulose culture, CTG, 120 hours
From the text: as §2, §3
as §4, with “After there were no visible air bubbles in the cell suspension, 80 μL of the cell suspension was added to each well of a 96-well plate, with a total of 1000-2000 cells. The cells in the 96-well plate were cultured overnight at 37° C., 5% CO2, and 95% humidity.” left out
as §6, §7

`C#Cc1c(F)ccc2cc(O)cc(-c3c(F)cc4c(N5CC6CCC(C5)N6)nc(OC[C@]5(C)CN(CC=C)CCC5(F)F)nc4c3F)c12` (atropisomer, axis not shown; (Ra)) [Example 42] was tested, and the IC50 [1] was 150 nM and the IC50 [2] was 47 nM.

`C#Cc1c(F)ccc2cc(O)cc(-c3c(F)cc4c(N5CC6CCC(C5)N6)nc(OC[C@]5(C)CN(CC)CCC5(F)F)nc4c3F)c12` (atropisomer, axis not shown; (Ra)) [Example 43, (Ra)-4-(4-((1R,5S)-3,8-diazabicyclo[3.2.1]octan-3-yl)-2-(((S)-1-ethyl-4,4-difluoro-3-methylpiperidin-3-yl)methoxy)-6,8-difluoroquinazolin-7-yl)-5-ethynyl-6-fluoronaphthalen-2-ol] showed an IC50 [1] of 37 nM and an IC50 [2] of 11 nM.

Work on `C#Cc1c(F)ccc2cc(O)cc(-c3c(F)cc4c(N5CC6CCC(C5)N6)nc(OC[C@]5(C)CN(CCF)CCC5(F)F)nc4c3F)c12` (atropisomer, axis not shown; (Ra)) [Example 44, (Ra)-4-(4-((1R,5S)-3,8-diazabicyclo[3.2.1]octan-3-yl)-2-(((S)-4,4-difluoro-1-(2-fluoroethyl)-3-methylpiperidin-3-yl)methoxy)-6,8-difluoroquinazolin-7-yl)-5-ethynyl-6-fluoronaphthalen-2-ol] yielded an IC50 [1] of 217 nM and an IC50 [2] of 118 nM.

Compound `CN1CC/C(=C\F)[C@](C)(COc2nc(N3C[C@H]4CC[C@@H](C3)N4)c3cc(Cl)c(-c4c(F)ccc5sc(N)c(C#N)c45)c(F)c3n2)C1` (single isomer, unassigned) [Example 324-1] has an IC50 [3] of 4 nM, an IC50 (GP2D cells) of 0.39 nM and an IC50 (HPAC cells) of 4.1 nM. For the same compound, the IC50 (KP-4 cells; 3D methylcellulose culture) was 4.74 nM and the IC50 (Panc 04.03 cells; 3D methylcellulose culture) was 1.34 nM.

Work on `C#Cc1c(F)ccc2cc(O)cc(-c3c(F)cc4c(N5CC6CCC(C5)N6)nc(OC[C@]5(C)CN(C)CCC5(F)F)nc4c3F)c12` [Example 6-2] yielded an IC50 [1] of 32 nM and an IC50 [2] of 17 nM.

Compound `C#Cc1c(F)ccc2cc(O)cc(-c3ncc4c(N5CC6CCC(C5)N6)nc(OC[C@@]56CCCN5C[C@H](F)C6)nc4c3F)c12` [MRTX1133, reference compound] has an IC50 ([3]; Homo sapiens) of 28 nM, an IC50 (GP2D cells; Homo sapiens, GP2d) of 3 nM and an IC50 (HPAC cells; Homo sapiens, HPAC) of 8.19 nM. It also gave an IC50 (AsPC-1 cells) of 18.3 nM, an IC50 (KP-4 cells; Homo sapiens, KP-4, 3D methylcellulose culture) of 42.6 nM and an IC50 (Panc 04.03 cells; Homo sapiens, Panc 04.03, 3D methylcellulose culture) of 20.6 nM.
